Laboratory results as given in BindingDB's records for doi:10.7270/Q2959G0B (Nmmlsc, 2009).

Target: Ras-related C3 botulinum toxin substrate 1 (Mus musculus, UniProt P63001)
Assay: Rac1 wildtype GTP binding inhibitors, SAR follow-up, biochemical, pyrazoline analogs, multiplex, flow cytometry, Ki (AID 2055)
[1] = inactive by the depositor's call

Row | Compound | EC50 [1] [µM] | EC50 [µM]
1 | COc1ccc(C2CC(c3ccc(F)cc3)=NN2c2ccc(S(N)(=O)=O)cc2)cc1 (centres undefined) [4-[5-(4-fluorophenyl)-3-(4-methoxyphenyl)-3,4-dihydropyrazol-2-yl]benzenesulfonamide] | 30 | 
2 | COc1ccc(-c2cc(-c3ccccc3)nn2-c2ccc(S(N)(=O)=O)cc2)cc1 [4-[5-(4-methoxyphenyl)-3-phenylpyrazol-1-yl]benzenesulfonamide] | 30 | 
3 | COc1ccc(C2CC(C3CCCCC3)=NN2c2ccc(S(N)(=O)=O)cc2)cc1 (centres undefined) [4-[5-cyclohexyl-3-(4-methoxyphenyl)-3,4-dihydropyrazol-2-yl]benzenesulfonamide] | 30 | 
4 | O=S(=O)(c1ccc(N2N=C(c3ccc(Br)cc3)CC2c2ccccc2)cc1)C(F)F (centres undefined) [5-(4-bromophenyl)-2-[4-(difluoromethylsulfonyl)phenyl]-3-phenyl-3,4-dihydropyrazole] | 30 | 
5 | FC(F)(F)c1ccccc1C1CC(c2ccc(Br)cc2)=NN1c1ccccc1 (centres undefined) [5-(4-bromophenyl)-2-phenyl-3-[2-(trifluoromethyl)phenyl]-3,4-dihydropyrazole] | 30 | 
6 | O=[N+]([O-])c1cccc(C2C[C-](c3ccc(F)cc3)N=[N+]2c2ccccc2)c1 (centres undefined) [5-(4-fluorophenyl)-3-(3-nitrophenyl)-2-phenyl-3,4-dihydropyrazole] | 30 | 
7 | Cc1ccc(-c2cc(C(F)(F)F)nn2-c2ccc(S(N)(=O)=O)cc2)cc1 [Celecoxib] | 30 | 
8 | COc1ccc(C2CC(c3ccc(N(C)C)cc3)=NN2c2ccc(S(N)(=O)=O)cc2)cc1 (centres undefined) [KUC103422N] | 30 | 
9 | COc1ccc(C2CC(c3cccs3)=NN2c2ccc(S(N)(=O)=O)cc2)cc1 (centres undefined) [KUC103438N] | 30 | 
10 | NS(=O)(=O)c1ccc(N2N=C(c3ccccc3)CC2c2ccccc2Cl)cc1 (centres undefined) [KUC103446N] | 30 | 
11 | COc1ccc(C2CC(C(C)(C)C)=NN2c2ccc(S(N)(=O)=O)cc2)cc1 (centres undefined) [KUC103450N] | 30 | 
12 | COc1ccc(C2CC(c3ccccc3C(F)(F)F)=NN2c2ccc(S(N)(=O)=O)cc2)cc1 (centres undefined) [KUC103474N] | 30 | 
13 | Cc1ccccc1N1N=C(c2ccccc2)CC1c1ccc(N(C)C)cc1 (centres undefined) [N,N-dimethyl-4-[2-(2-methylphenyl)-5-phenyl-3,4-dihydropyrazol-3-yl]aniline] | 30 | 
14 | COc1ccc(C2CC(c3ccccc3)=NN2c2ccc(S(N)(=O)=O)cc2)cc1OC (centres undefined) [UNM-0000305823] | 13.2 | 
15 | COc1ccc(C2CC(c3ccc(Br)cc3)=NN2c2ccccc2Cl)cc1 (centres undefined) [UNM-0000305832] | 30 | 
16 | COc1ccc(C2=NN(c3ccccc3)C(c3ccc(Cl)cc3)C2)cc1 (centres undefined) [UNM-0000305833] | 30 | 
17 | O=S(=O)(O)c1ccc(N2N=C(c3ccccc3)CC2c2ccccc2)cc1 (centres undefined) [UNM-0000305834] |  | 30
18 | Cc1cccc(N2N=C(c3ccccc3)CC2c2ccccc2)c1 (centres undefined) [UNM-0000305835] | 30 | 
19 | O=[N+]([O-])c1ccc([N+]2=N[C-](c3ccccc3)CC2c2ccc(O)cc2)cc1 (centres undefined) [UNM-0000305838] | 30 | 
20 | CN(C)c1ccc(C2CC(c3ccc(Br)cc3)=NN2c2ccccc2)cc1 (centres undefined) [UNM-0000305846] | 30 | 
21 | CN(C)c1ccc(C2CC(c3ccc(Cl)cc3)=NN2c2ccccc2)cc1 (centres undefined) [UNM-0000305847] | 30 | 
22 | COc1ccc(C2=NN(c3ccccc3)C(c3ccc(OC)c(OC)c3C(=O)O)C2)cc1 (centres undefined) [UNM-0000305848] | 30 | 

Row | Compound | EC50 [1] [µM] | EC50 [µM]
23 | Cc1ccccc1[N+]1=N[C-](c2ccccc2)CC1c1cccc([N+](=O)[O-])c1 (centres undefined) [UNM-0000305854] | 30 | 
24 | COc1ccccc1N1N=C(c2ccccc2)CC1c1ccccc1 (centres undefined) [UNM-0000305855] | 30 | 
25 | O=[N+]([O-])c1cccc(C2C[C-](c3ccccc3)N=[N+]2c2ccccc2)c1 (centres undefined) [UNM-0000305857] | 30 | 
26 | COc1ccc(C2CC(c3ccc(Cl)cc3)=NN2c2ccccc2)cc1OC (centres undefined) [UNM-0000305858] | 30 | 
27 | FC(F)(F)c1cccc(N2N=C(c3ccc(Cl)cc3)CC2c2ccccc2Cl)c1 (centres undefined) [UNM-0000305859] | 30 | 
28 | COc1ccc(C2=NN(c3ccccc3F)C(c3ccc(F)cc3)C2)cc1 (centres undefined) [UNM-0000305860] | 30 | 
29 | COc1ccc(C2=NN(c3ccc(Cl)cc3)C(c3ccccc3F)C2)cc1 (centres undefined) [UNM-0000305863] | 30 | 
30 | COc1ccc(C2CC(c3ccc(F)cc3)=NN2c2ccccc2)cc1OC (centres undefined) [UNM-0000305864] | 30 | 
31 | CN(C)c1ccc(C2CC(c3ccc(F)cc3)=NN2c2ccccc2)cc1 (centres undefined) [UNM-0000305866] | 30 | 
32 | COc1ccc(C2CC(c3ccccc3)=NN2c2ccc(C(N)=O)cc2)cc1 (centres undefined) [UNM-0000305870] | 30 | 
33 | COc1ccc(C2CC(c3ccccc3)=NN2c2ccc(C(=O)O)cc2)cc1 (centres undefined) [UNM-0000306085] | 30 | 
34 | COc1ccc(C2CC(c3ccccc3F)=NN2c2ccc(S(N)(=O)=O)cc2)cc1 (centres undefined) [UNM-0000306110] | 30 | 
35 | COc1ccc(C2CC(c3ccccc3Br)=NN2c2ccc(S(N)(=O)=O)cc2)cc1 (centres undefined) [UNM-0000306112] | 30 | 
36 | COc1ccc(C2CC(c3cccc(Br)c3)=NN2c2ccc(S(N)(=O)=O)cc2)cc1 (centres undefined) [UNM-0000306113] | 30 | 
37 | COc1ccc(C2CC(c3cccc(Cl)c3)=NN2c2ccc(S(N)(=O)=O)cc2)cc1 (centres undefined) [UNM-0000306134] | 30 | 
38 | COc1ccc(C2CC(c3ccc(Br)cc3)=NN2c2ccc(S(N)(=O)=O)cc2)cc1 (centres undefined) [UNM-0000306138] | 30 | 
39 | NS(=O)(=O)c1ccc(N2N=C(c3ccccc3)CC2c2cccc(Br)c2)cc1 (centres undefined) [UNM-0000306147] | 30 | 
40 | Cc1ccccc1C1CC(c2ccccc2)=NN1c1ccc(S(N)(=O)=O)cc1 (centres undefined) [UNM-0000306148] | 30 | 
41 | COc1ccc(C2CC(c3ccccc3C)=NN2c2ccc(S(N)(=O)=O)cc2)cc1 (centres undefined) [UNM-0000306152] | 30 | 
42 | COc1ccc(C2CC(c3cccc(C)c3)=NN2c2ccc(S(N)(=O)=O)cc2)cc1 (centres undefined) [UNM-0000306153] | 30 | 
43 | NS(=O)(=O)c1ccc(N2N=C(c3ccccc3)CC2c2ccc(Br)cc2)cc1 (centres undefined) [UNM-0000306160] | 30 | 
44 | NS(=O)(=O)c1ccc(N2N=C(c3ccccc3)CC2c2cccc(Cl)c2)cc1 (centres undefined) [UNM-0000306161] | 30 | 
